One block for each molecule: values may come before it. Ends that are not written are not given here. maleimide monolayer = not defined here
Columns and labels:
αIIbβ3 CHO K1 cells [1] = assay: Ac-GXGDSC peptide array cell adhesion, αIIbβ3 CHO K1 cells; type: cell-based, human; conditions: 0.5% peptide spots; 300 μM cRGDFG
Procedure: Cysteine-terminated peptides were immobilized onto maleimide-presenting SAMs by adding 40 μL of 1 mM peptide solution to the biochip and incubating at 37° C. for 1 hour. Substrates were rinsed with DIUF water and ethanol and dried under a stream of nitrogen. αIIbβ3 CHO K1 cells were detached from culture plates with 1 mM EGTA/2 mM EDTA in PBS (phosphate-buffered saline), rinsed with serum-free F-12K medium, centrifuged and resuspended in serum-free F-12K medium supplemented with cRGDFG (SEQ ID NO: 12) (300 μM) and 1× penicillin/streptomycin. After 15-minute of incubation, cells (200,000/mL) were added to substrates in 24-well culture plates. After 2 hour incubation at 37° C. and 5% CO2, media was exchanged for F-12K medium supplemented with 10% FBS, 1× penicillin/streptomycin and cRGDFG (SEQ ID NO: 12) (300 μM). After 2 hours, the substrates were washed gently with warm PBS, and adherent cells were immediately fixed with 4% formaldehyde for 30 minutes, visualized with a 20× objective of a Zeiss Axiovert 200 inverted microscope, and photographed. For cell adhesion assays mediated by Ac-GXGDSC (SEQ ID NO: 26), αIIbβ3 CHO K1 cells were incubated on a 5×4 circle (1 mm diameter) array for 1 hour with serum-free F-12K medium supplemented with cRGDFG (SEQ ID NO: 12) (300 μM) and 1× penicillin/streptomycin, followed by media exchange to F-12K medium supplemented with 10% FBS, 1× penicillin/streptomycin and cRGDFG (SEQ ID NO: 12) (300 μM. The substrates were washed with warm PBS, and adherent cells were immediately fixed and permeabilized with 4% formaldehyde and 0.5% Triton-X for 30 minutes. Fixed cells were stained with DAPI, visualized and photographed with a 20× objective as described. The number of adherent cells per field of view was counted using Image J software. Cells were counted in at least three fields for each circle, and each experiment was repeated 3 times. The degree of adhesion is reported as a percentage of cells that adhere relative to control experiments with the peptide Ac-GRGDSC (SEQ ID NO: 28).
To further assay the binding of peptide ligands to the […] integrin for XGD peptide ligands, an array was used to assess the adhesion of cells to peptides having the arginine residue substituted with each amino acid other than cysteine (e.g., A, D, E, F, G, H, I, K, L, M, N, P, Q, R, S, T, V, W, and Y). The library of Ac-GXGDSC (SEQ ID NO: 26) peptides was synthesized and immobilized in an array with each peptide occupying a 1 mm diameter region of the monolayer (FIG. 61). A suspension of αIIbβ3 CHO K1 cells was applied to the entire array and cells were allowed to attach to regions presenting the various peptides. The substrates were then rinsed and stained with DAPI, and the cells were counted to determine the relative efficiency of cell attachment to peptides in the library. […] Substitution with leucine and isoleucine were also active, though at a lower level.

αIIbβ3 CHO K1 cells [2] = assay: Cell adhesion inhibition assay with soluble peptides; type: cell-based, human
Procedure: Suspensions of αIIbβ3 CHO K1 cells (100,000/mL) were incubated with cRGDFG (SEQ ID NO: 12) (300 μM) in serum-free F-12K medium with 1 mg/mL BSA (bovine serum albumin) and 1× penicillin/streptomycin for 15 minutes at 37° C. and 5% CO2. These suspensions were then supplemented with soluble peptides at concentrations ranging from 1 pM to 100 μM and further incubated for 15 minutes at 37° C. and 5% CO2. Cells were then added to monolayers and incubated at 37° C. and 5% CO2 for 2 hours, then media was exchanged for F-12K medium supplemented with 10% FBS and 1× penicillin/streptomycin. The substrates were further incubated for 2 hours. The substrates were washed gently with warm PBS, and adherent cells were immediately fixed and permeabilized with 4% formaldehyde and 0.5% Triton-X for 30 minutes. Fixed cells were stained with DAPI, visualized and photographed with a 20× as described previously. The number of adherent cells per field of view was counted using Image J. Cells were counted in at least five fields for each substrate, and each experiment was repeated 3 times. The degree of inhibition is reported as a percentage of cells that adhere relative to control experiments in the absence of soluble peptide.
To verify that the two peptides interact with the same site on αIIbβ3, it was determined whether the peptides GRGDS (SEQ ID NO: 4), HHLGGAKQAGDV (SEQ ID NO: 1) and AGDV (SEQ ID NO: 22), in soluble form, could block the attachment of cells to the monolayers presenting these ligands. In these experiments identical suspensions of cells (100,000/mL) were first incubated in serum-free F-12K medium supplemented with cRGDFG (SEQ ID NO: 12) (300 μM) and with the soluble peptides in concentrations ranging from 1 pM to 100 μM and then applied the mixtures to monolayers presenting either the GRGDSC (SEQ ID NO: 11), HHLGGAKQAGDVC (SEQ ID NO: 21), or AGDVC (SEQ ID NO: 17) peptide (SEQ ID NO: 17) (FIG. 5). Cells were allowed to attach for 2 hours, after which media was exchanged to 10% FBS F-12K medium (supplemented with cRGDFG (SEQ ID NO: 12)) and cultured for an additional 2 hours. The slides were then rinsed and nuclei were stained with DAPI to facilitate counting of the adherent cells. […] This experiment again verifies that the cell attachment is mediated by the immobilized peptide alone and not non-specific interactions between other cell-surface molecules and the monolayer.

[3] = molecular target: T1, human αIIbβ3 integrin on transfected CHO K1 cells (human, UniProt P08514 32-1039; P05106 27-788); assay: adhesion of αIIbβ3 CHO K1 cells to the peptide monolayer, 300 µM cRGDFG present
T1 construct: whole, on cells; CHO K1 cells transfected with human αIIb and β3 cDNA; about 30% of the cells expressed the receptor; also called platelet receptor; platelet integrin
Procedure: For cell adhesion assays mediated by Ac-GXGDSC (SEQ ID NO: 26), αIIbβ3 CHO K1 cells were incubated on a 5×4 circle (1 mm diameter) array for 1 hour with serum-free F-12K medium supplemented with cRGDFG (SEQ ID NO: 12) (300 μM) and 1× penicillin/streptomycin, followed by media exchange to F-12K medium supplemented with 10% FBS, 1× penicillin/streptomycin and cRGDFG (SEQ ID NO: 12) (300 μM. The substrates were washed with warm PBS, and adherent cells were immediately fixed and permeabilized with 4% formaldehyde and 0.5% Triton-X for 30 minutes. Fixed cells were stained with DAPI, visualized and photographed with a 20× objective as described. The number of adherent cells per field of view was counted using Image J software. Cells were counted in at least three fields for each circle, and each experiment was repeated 3 times. The degree of adhesion is reported as a percentage of cells that adhere relative to control experiments with the peptide Ac-GRGDSC (SEQ ID NO: 28).
CHO K1 cells were used that were transfected with the αIIbβ3 receptor, as described previously (Salsmann et al., 2005). Cells were transfected with pcDNA3.1 vectors that coded for αIIb and β3 using FuGENE6 and analyzed by FACS after labeling with the PAC-1 (anti-αIIbβ3) and H-96 (anti-β3) antibodies. Approximately 30% of the cells expressed the receptor (FIG. 2A). Because the CHO K1 cells also express αv and α5 integrins on their surfaces, adhesion experiments were performed in the presence of the cyclic peptide cRGDFG (SEQ ID NO: 12), where F is a D amino acid. […] Treatment of transfected cells with both the cyclic peptide inhibitor and the PAC-1 antibody, however, prevented cell adhesion to the monolayer (FIG. 2F).

[4] = monolayers presenting GRGDSC, HHLGGAKQAGDVC or AGDVC, soluble peptide 1 pM to 100 μM, 300 μM cRGDFG

Molecule: Ac-GVGDSC (Ac-GVGDSC-NH2)
cell adhesion on Ac-GXGDSC array relative to Ac-GRGDSC (αIIbβ3 CHO K1 cells [1]): mediated αIIbβ3 CHO K1 cell adhesion

Molecule: GADGV (scrambled peptide)
block of cell attachment by soluble peptide (αIIbβ3 CHO K1 cells [2]; [4]): had no effect on cell adhesion

Molecule: AGDV (completely synthesized peptide)
block of cell attachment by soluble peptide (αIIbβ3 CHO K1 cells [2]; monolayer presenting GRGDS): blocked cell attachment | block of cell attachment by soluble peptide (αIIbβ3 CHO K1 cells [2]; [4]): could block cell attachment to monolayers presenting any of the three peptides

Molecule: Ac-GGGDSC (Ac-GGGDSC-NH2)
cell adhesion on Ac-GXGDSC array relative to Ac-GRGDSC (αIIbβ3 CHO K1 cells [1]): mediated αIIbβ3 CHO K1 cell adhesion

Molecule: HHLGGAKQAGDV (not fully specified (C-terminus))
block of cell attachment by soluble peptide (αIIbβ3 CHO K1 cells [2]; monolayer presenting GRGDS): blocked cell attachment | block of cell attachment by soluble peptide (αIIbβ3 CHO K1 cells [2]; [4]): could block cell attachment to monolayers presenting any of the three peptides

Molecule: Ac-GIGDSC (Ac-GIGDSC-NH2)
cell adhesion on Ac-GXGDSC array relative to Ac-GRGDSC (αIIbβ3 CHO K1 cells [1]): mediated αIIbβ3 CHO K1 cell adhesion

Molecule: Ac-GAGDSC (Ac-GAGDSC-NH2)
cell adhesion on Ac-GXGDSC array relative to Ac-GRGDSC (αIIbβ3 CHO K1 cells [1]): mediated αIIbβ3 CHO K1 cell adhesion

Molecule: Ac-GLGDSC (Ac-GLGDSC-NH2)
cell adhesion on Ac-GXGDSC array relative to Ac-GRGDSC (αIIbβ3 CHO K1 cells [1]): mediated αIIbβ3 CHO K1 cell adhesion

Molecule: GRGDS (synthesized peptide inhibitor)
block of cell attachment by soluble peptide (αIIbβ3 CHO K1 cells [2]; [4]): could block cell attachment to monolayers presenting any of the three peptides

Molecule: GGRDGS (scrambled peptide)
block of cell attachment by soluble peptide (αIIbβ3 CHO K1 cells [2]; [4]): had no effect on cell adhesion

Molecule: Ac-GKGDSC (Ac-GKGDSC-NH2)
cell adhesion on Ac-GXGDSC array relative to Ac-GRGDSC (αIIbβ3 CHO K1 cells [1]): mediated αIIbβ3 CHO K1 cell adhesion

Molecule: GHHLGGADQAGKV (scrambled peptide)
block of cell attachment by soluble peptide (αIIbβ3 CHO K1 cells [2]; [4]): had no effect on cell adhesion

binding result [3]: binds
B1: QAGDVC (SEQ ID NO: 16), immobilized on a self-assembled monolayer (peptide)
peptide: QAGDVC-NH2
modifications: not fully specified (residue 6); also: C-terminal Cys thiol linked to maleimide of monolayer
notes: also called 0.5% QAGDVC SAM

binding result [3]: no binding
Molecule: GDVC(maleimide monolayer)-NH2 (reading uncertain, also called 0.5% GDVC SAM) [GDVC (SEQ ID NO: 18), immobilized on a self-assembled monolayer]

binding result [3]: no binding
Molecule: GGAKQAC(maleimide monolayer)-NH2 (reading uncertain, also called 0.5% GGAKQAC SAM) [GGAKQAC (SEQ ID NO: 15), immobilized on a self-assembled monolayer]

binding result [3]: binds
B2: KQAGDC (SEQ ID NO: 19), immobilized on a self-assembled monolayer (peptide)
peptide: KQAGDC-NH2
modifications: not fully specified (residue 6); also: C-terminal Cys thiol linked to maleimide of monolayer
notes: also called 0.5% KQAGDC SAM

binding result [3]: no binding
B3: GHHLGGADQAGKVC (SEQ ID NO: 71), scrambled peptide immobilized on a self-assembled monolayer (peptide)
peptide: GHHLGGADQAGKVC-NH2
modifications: not fully specified (residue 14); also: C-terminal Cys thiol linked to maleimide of monolayer
notes: Control

binding result [3]: no binding
B4: KQAGC (SEQ ID NO: 20), immobilized on a self-assembled monolayer (peptide)
peptide: KQAGC-NH2
modifications: not fully specified (residue 5); also: C-terminal Cys thiol linked to maleimide of monolayer
notes: also called 0.5% KQAGC SAM

binding result [3]: binds
Molecule: KQAGDVC(maleimide monolayer)-NH2 (reading uncertain, also called 0.5% KQAGDVC SAM) [KQAGDVC (SEQ ID NO: 14), immobilized on a self-assembled monolayer]

binding result [3]: no binding
Molecule: GGRDGSC(maleimide monolayer)-NH2 (reading uncertain, Control; also called 0.5% GGRDGSC) [GGRDGSC (SEQ ID NO: 70), scrambled peptide immobilized on a self-assembled monolayer]

binding result [3]: no binding
Molecule: HHLGGAC(maleimide monolayer)-NH2 (reading uncertain, also called 0.5% HHLGGAC SAM) [HHLGGAC (SEQ ID NO: 13), immobilized on a self-assembled monolayer]

binding result [3]: binds
Molecule: AGDVC(maleimide monolayer)-NH2 (not fully specified; reading uncertain, also called 0.5% AGDVC SAM) [AGDVC (SEQ ID NO: 17), immobilized on a self-assembled monolayer]

— patent US20120252730A1, “PLATELET AGGREGATION INHIBITORS” (UNIVERSITY OF CHICAGO, priority 2009, published 2012)
